pIC50: −log10 of the molar value. Read-outs that look alike come from different tables or passages of the source.
What was measured:
CREBBP bromodomain [1] = biological target: T1, CREBBP bromodomain (Homo sapiens, UniProt Q92793); experiment: AlphaScreen peptide displacement assay; assay type: binding; conditions: for pIC50: read-out: CREBBP IC50; for IC50: peptide and protein concentration = 25 nM, range in parentheses, read-out: IC50/nM vs CREBBP
T1 construct: amplify the bromodomain region of the; made in house
Protocol: AlphaScreen Peptide Displacement Assay: Bromodomain AlphaScreen assays were carried out as
previously described.11,34 All experiments were carried out in duplicate and, within a table, on the same plate. […]

CREBBP bromodomain [2] = biological target: T1, CREBBP bromodomain; design: method as in PMID 21804994, PMID 21851057; conditions: cited from earlier work
BRPF3 = biological target: T2, BRPF3 (Homo sapiens, UniProt Q9ULD4); experiment: Differential scanning fluorimetry (ΔTm); conditions: read-out: ΔTm BRPF3
T2 sequence (Q9ULD4 589-693 limits assumed): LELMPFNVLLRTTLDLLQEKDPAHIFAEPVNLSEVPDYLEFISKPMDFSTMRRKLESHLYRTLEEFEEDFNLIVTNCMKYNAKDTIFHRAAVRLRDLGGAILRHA

CREBBP = biological target: T3, CREBBP (Homo sapiens, UniProt Q92793); experiment: Differential scanning fluorimetry (ΔTm); assay type: binding; conditions: DSF; protein 2 µM, compound 10 µM
T3 construct: amplify the bromodomain region of the; made in house

[3] = test system: GFP chimerized to multimerized CREBBP bromodomains in U2OS cells; experiment: Fluorescence recovery after photobleaching (FRAP) assay; assay type: cell-based
Protocol: To determine the utility of (R)-2 in a cellular setting a FRAP assay was conducted.
The bleached area is indicated by a red circle. B) Half times of fluorescence recovery (t1/2) of U2OS cells expressing green fluorescent protein (GFP) chimerized to multimerized CREBBP bromodomains with or without 2.5 μM SAHA (indicated by †).
CREBBP bromodomain from chromatin. A) Time dependence of fluorescent recovery in the bleached area of U2OS cells expressing GFP chimerised to multimerised CREBBP bromodomains. Curves represent the means at each time point of 15 cells in each group (see Figure 3A for representative images of cell nuclei). B) Half times of fluorescence recovery (t½) of cells expressing GFP chimerised to multimerised CREBBP bromodomains. Bars represent the mean t½ calculated from individual recovery curves of 15 cells per group. * […]
(§1) and entropy of binding respectively).
MicroCal™ Origin software package. […]
crystallization robot (TTP Labtech, Royston UK).
50+100 nl). […] All crystallizations were carried out […]
followed by manual building in COOT42.

BRD4(1) = BRD4(1) (Homo sapiens, UniProt O60885); experiment: Isothermal titration calorimetry (ITC); assay type: binding; conditions: 15 °C
Protocol: (§2) Isothermal Titration Calorimetry (ITC): Experiments were carried out on a VP-ITC titration microcalorimeter from MicroCal™ , LLC (Northampton, MA) with a cell volume of 1.4189 ml and a 250 µl microsyringe equipped with a ThermoVac module.
(§3) The microsyringe was loaded with a solution of the protein sample (200-500 µM protein in ITC buffer) and was carefully inserted into the calorimetric cell which was filled with an amount of the ligand ([…], 20-30 µM in ITC buffer). The system […]
(§4) applied. All titrations were conducted using an initial control injection of 2 µl followed by up to 34 identical injections of 8 µl with a duration of 4 sec per injection and a spacing of 250 sec between injections. The titration experiments were designed in such a fashion, as to ensure complete saturation of the enzymes before […]
(§5) corrected for protein heats of dilution (measured on separate experiments by titrating the proteins into ITC buffer) and deconvoluted using the MicroCal™ Origin software supplied with the instrument to yield enthalpies of binding (∆H) and binding constants (KB) in the same fashion to that previously described in detail by Wiseman and coworkers.35 Thermodynamic parameters were calculated using the basic equation of thermodynamics (∆G = ∆H − T∆S = −RTlnKB, where ∆G, ∆H and ∆S are the changes in free energy, enthalpy […]
as §1
(§6) MicroCal™ Origin software package.

CREBBP bromodomain [4] = biological target: T1, CREBBP bromodomain; experiment: Isothermal titration calorimetry (ITC); assay type: binding; conditions: 15 °C
Protocol: as §2, §3, §4, §5, §1, §6

PB1(1) = PB1(1) (Homo sapiens, UniProt Q86U86); experiment: Differential scanning fluorimetry (ΔTm); conditions: read-out: ΔTm PB1(1)
Protocol: (§7) Differential Scanning Fluorimetry: Bromodomain ΔTm assay was performed as reported previously,34 with protein at a final concentration of 2 µM and compound at 10 µM.

BRD9 = biological target: T4, BRD9 (Homo sapiens, UniProt Q9H8M2); experiment: Differential scanning fluorimetry (ΔTm); conditions: read-out: ΔTm BRD9
T4 sequence (Q9H8M2 136-240 limits assumed): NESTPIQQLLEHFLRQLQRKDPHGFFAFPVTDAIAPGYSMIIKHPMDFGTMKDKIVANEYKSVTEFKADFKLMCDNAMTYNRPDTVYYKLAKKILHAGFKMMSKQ

PCAF = biological target: T5, PCAF (Homo sapiens, UniProt Q92831); experiment: Differential scanning fluorimetry (ΔTm); conditions: read-out: ΔTm PCAF
T5 sequence (Q92831 723-827 limits assumed): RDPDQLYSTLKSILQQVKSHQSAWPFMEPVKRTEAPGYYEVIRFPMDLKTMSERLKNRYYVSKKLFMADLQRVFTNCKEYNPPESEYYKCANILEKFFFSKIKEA

BAZ2B = biological target: T6, BAZ2B (Homo sapiens, UniProt Q9UIF8); experiment: Differential scanning fluorimetry (ΔTm); conditions: read-out: ΔTm BAZ2B
T6 sequence (Q9UIF8 2060-2164 limits assumed): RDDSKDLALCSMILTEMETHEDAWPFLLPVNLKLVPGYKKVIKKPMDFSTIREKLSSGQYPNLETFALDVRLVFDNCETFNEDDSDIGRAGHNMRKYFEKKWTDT

LOC93349A = LOC93349A (Homo sapiens, UniProt Q9H930); experiment: Differential scanning fluorimetry (ΔTm); conditions: read-out: ΔTm LOC93349A
Protocol: as §7

TIF1α = biological target: T7, TIF1α (Homo sapiens, UniProt O15164); experiment: Differential scanning fluorimetry (ΔTm); conditions: read-out: ΔTm TIF1α
T7 sequence (O15164 899-1004 limits assumed): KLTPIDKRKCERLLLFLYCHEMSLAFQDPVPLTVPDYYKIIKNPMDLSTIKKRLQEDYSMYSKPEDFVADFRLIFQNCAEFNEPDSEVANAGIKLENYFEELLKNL

T1 sequence (Q92793 1085-1192 limits assumed): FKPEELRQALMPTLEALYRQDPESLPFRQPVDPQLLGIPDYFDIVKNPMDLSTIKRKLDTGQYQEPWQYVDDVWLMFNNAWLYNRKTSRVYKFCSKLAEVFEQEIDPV
T3 sequence (Q92793 1085-1192 limits assumed): as above
PB1(1), sequence (Q86U86 41-151 limits assumed): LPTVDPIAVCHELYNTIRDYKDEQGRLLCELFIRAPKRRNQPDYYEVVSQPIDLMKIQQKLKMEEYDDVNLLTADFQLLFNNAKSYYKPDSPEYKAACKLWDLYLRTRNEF
LOC93349A, sequence (Q9H930 467-570 limits assumed): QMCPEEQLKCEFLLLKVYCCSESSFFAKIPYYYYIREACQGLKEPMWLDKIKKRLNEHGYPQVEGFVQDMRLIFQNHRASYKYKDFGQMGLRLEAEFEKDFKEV

## CC1Oc2c(cccc2C(=O)NCCN2CCc3ccccc32)NC1=O (stereo not shown) [compound 3]
CREBBP bromodomain [1]
  pIC50: 4.11

## CC1Oc2c(cccc2C(=O)NCCCN2CCCc3ccccc32)NC1=O (stereo not shown) [compound 4]
CREBBP bromodomain [1]
  pIC50: 4.29

## CN1CCCC1=O [N-methyl-2-pyrrolidone (NMP), N-methyl-2-pyrrolidone]
CREBBP bromodomain [2]; AlphaScreen
  pIC50: 2.72
CREBBP bromodomain [2]; from AlphaScreen IC50 vs CREBBP bromodomain
  ligand efficiency: 0.54

## C[C@@H]1Nc2c(cccc2C(=O)NCCCN2CCCc3ccccc32)NC1=O [(S)-1]
CREBBP bromodomain [1]
  IC50: 6870 nM

## C[C@H]1Nc2c(cccc2C(=O)NCCCN2CCCc3ccccc32)NC1=O [(R)-1]
CREBBP bromodomain [1]
  IC50: 758 nM
  pIC50: 6.12

## COc1ccc2c(c1)CCCN2CCCNC(=O)c1cccc2c1N[C@H](C)C(=O)N2 [(R)-6]
CREBBP bromodomain [1]
  IC50: 1410 nM

## C[C@H]1Nc2c(cccc2C(=O)NCCCN2CCOc3ccccc32)NC1=O [(R)-5]
CREBBP bromodomain [1]
  IC50: 549 nM

## COc1ccc2c(c1)N(CCCNC(=O)c1c(F)ccc3c1N[C@H](C)C(=O)N3)CCC2 [(R)-8]
CREBBP bromodomain [1]
  IC50: 2550 nM

## COc1ccc2c(c1)N(CCCNC(=O)c1cccc3c1N[C@H](C)C(=O)N3)CCC2 [(R)-2]
BRPF3
  ΔTm at 10 µM: 0.5 °C
CREBBP
  ΔTm at 10 µM: 5.4 °C
[3]; 1, 5, 10 µM (R)-2 in presence of 2.5 μM SAHA
  half time of fluorescence recovery (t1/2) compared to wild-type cells: dose-dependently reduced
[3]; 1, 5, 10 µM, with 2.5 μM SAHA
  displacement of CREBBP bromodomain from chromatin (FRAP): can displace the CREBBP bromodomain from chromatin
BRD4(1)
  −TΔS of binding to BRD4: -1.36 kcal/mol
BRD4(1); error = error in fitting
  ΔH of binding to BRD4: -6.42 ± 0.12 kcal/mol
CREBBP bromodomain [4]
  TΔS of binding to CREBBP: -2.40 kcal/mol
CREBBP bromodomain [4]; error = error in fitting
  ΔH of binding to CREBBP: -6.12 ± 0.04 kcal/mol
PB1(1)
  ΔTm at 10 µM: < 0.1 °C
BRD9
  ΔTm at 10 µM: < 1.1 °C
PCAF
  ΔTm at 10 µM: 0 °C
BAZ2B
  ΔTm at 10 µM: < 0.5 °C
LOC93349A
  ΔTm at 10 µM: 0.3 °C
TIF1α
  ΔTm at 10 µM: 0.7 °C

## COc1ccc2c(c1)N(CCCNC(=O)c1cc(F)cc3c1N[C@H](C)C(=O)N3)CCC2 [(R)-7]
CREBBP bromodomain [1]
  IC50: 1530 nM
